Reference: patent publication US20260137795A1, “EXATECAN IMMUNOCONJUGATES” (Immunome, Inc., priority 2023, published 2026)
Counter-ions that a name gives are not always drawn.

Assays:
Jeko-1 = experiment: CTG assay of payloads (CellTiter-Glo cell viability); format: cell-based
Description: The CTG assay is a method of determining the number of viable cells in culture based on quantitation of the ATP present, an indicator of metabolically active cells. The cell assay requires the addition of a single reagent, Cell Titer Glo, in which cells are lysed and generation of a luminescent signal is produced. The luminescent signal is proportional to the amount of ATP present. The amount of ATP is directly proportional to the number of cells present in culture. For our assay, cells are ensured to be in log-phase for either Jeko-1 or MDA-MB-468. Cells are transferred to 96 wells and treated with compounds in three-fold serial dilution starting from […] (10 points dilution), for 72 h. Cell viability is analyzed with CellTiter-Glo® Luminescent Cell Viability Assay (Promega) following manufactures' instruction. Percentage of viable cells in each compound concentration is determined by normalizing with the luminescence of vehicle control and plotted into percentage of viability versus dose response curve by nonlinear fit in GraphPad Prism software.

[1] = Human hepatocyte clearance (HHEP CL); format: in vitro ADME; set-up: half-life: dose or concentration left out as unconfirmed; conditions: for half-life: both sexes, human; for HHEP Cl T1/2: human hepatocytes intrinsic clearance, 90 min incubation
Procedure: Suspensions of human hepatocytes (from 10 mixed gender human donors, final concentration 0.5×10^6 cell/mL) in Williams' E medium are incubated for 90 min with a test compound (0.90% acetonitrile and 0.10% DMSO, final concentration […]) and positive controls (7-Ethoxycoumarin, 7-Hydroxycoumarin, 0.90% acetonitrile and 0.10% DMSO, final concentration […]), with constant shaking at about 600 rpm at 37° C., in an incubator at 5% CO2 and 95% humidity. The total volume of incubation was 200 μL. A sample ([…]) is taken out at TO, 15, 30, 60 and 90 min, which is added intermediately to the ice-cold stop solution (acetonitrile with 200 ng/ml of tobutamide and labetalol as internal standard) (125 μl), and vortexed at 500 rpm for 10 min, centrifuged at 3220×g for 20 min at 4° C. Analytical plates are sealed and stored at 4° C., until LCMS analysis. Viability of hepatocytes at pre-incubation is determined to be 84.5%.

[2] = Human liver microsome clearance (HLM CL); format: in vitro ADME; set-up: half-life: dose or concentration left out as unconfirmed; conditions: for half-life: human, microsomes; for HLM Cl T1/2: human liver microsome clearance, 60 min incubation, NADPH
Procedure: Working solution is prepared by adding 5 μL of compound and control stock solution (10 mM in dimethyl sulfoxide, DMSO) to 495 μL of acetonitrile (ACN) (intermediate solution concentration: 100 μM, 99% CAN and 1% DMSO. The appropriate concentrations of microsome working solutions are prepared in 100 mM potassium phosphate buffer. After reaction plates containing mixtures of compound and microsomes are pre-incubated at 37° C., for 10 min. […] of 2 mM of NADPH and 2 mM of MgCl2 solution is added to start the reaction. The final concentrations of incubation medium are as follows: microsome-0.5 mg protein/mL, test compound/control […], NADPH—1 mM, MgCl2—1 mM, acetonitrile 0.99%, DMSO 0.01%. Incubations are performed at 37° C., for 60 min. Samples are taken out at T0, T5, T15, T30, T45 and T60, which is added intermediately to the ice-cold stop solution (acetonitrile with 200) ng/ml of tobutamide and labetalol as internal standard) (125 μl), shaken for 10 min, centrifuged at 4000 rpm for 20 min at 4° C. Analytical plates are analyzed by LCMS.
Human liver microsome clearance assay assess metabolism by the cytochrome P450 system (phase I enzymes). These enzymes oxidize substrates by incorporating oxygen atoms into hydrocarbons, thus causing the introduction of hydroxyl groups, or N- O- and S-dealkylation of substrates and forming more polar products easier to be cleared. Human hepatocyte clearance assay measures more broadly the overall cellular metabolism of the test compound (phase I and phase II enzyme pathways). Phase II enzymes catalyze the conjugation reaction of xenobiotic metabolites and charged species, such as glutathione, sulfate, glycine, or glucuronic acid to form even more polar compounds for easier clearance.

physchem = experiment: physchem; set-up: dose or concentration left out as unconfirmed; conditions: PAMPA
[3] = AC-SINS self-interaction (antibody developability); format: physicochemical; conditions: FIG. 19
Procedure: Antibody developability was assessed by performing an AC-SINS assay and evaluating the potential for self-interaction.
An initial assessment of antibody developability was performed by AC-SINS to evaluate the potential for self-interaction (FIG. 19).

[4] = PAMPA (Parallel Artificial Membrane Permeability Assay); set-up: dose or concentration left out as unconfirmed; conditions: pH 7.4

Compound | IC50 (Jeko-1; Homo sapiens, JeKo-1, 72 h) [nM] | half-life ([1]; hepatocytes) [h] | half-life [2] [h] | Papp (physchem; pH 5) [×10⁻⁶ cm/s] | Papp (physchem; pH 7.4) [×10⁻⁶ cm/s] | AC-SINS shift / self-interaction [3] | IC50 (Jeko-1; 72 h) [nM] | HHEP Cl T1/2 [1] [h] | HLM Cl T1/2 [2] [h] | half-life ([1]; hepatocytes in suspension, read-out: HHEP Cl T1/2) [h] | Papp [4] [×10⁻⁶ cm/s]
CC[C@@]1(O)C(=O)OCc2c1cc1n(c2=O)Cc2c-1nc1cc(F)c(C)c3c1c2[C@H]([C@H](N)CO)CC3 (single isomer, unassigned) [Compound 16-111, hydrochloride] | 17.6 | 2.22 | 1.72 | 0.03 | 0.04 | – | – | – | – | – | –
Adalimumab | – | – | – | – | – | low shift | – | – | – | – | –
CC[C@@]1(O)C(=O)OCc2c1cc1n(c2=O)Cc2c-1nc1cc(F)c(C)c3c1c2[C@H]([C@H](CCO)NC(C)C)CC3 (single isomer, unassigned) [Compound 14-94] | 1.6 | 1.13 | 0.112 | 16.5 | 7.5 | – | – | – | – | – | –
CC[C@@]1(O)C(=O)OCc2c1cc1n(c2=O)Cc2c-1nc1cc(F)c(C)c3c1c2[C@H]([C@@H](N)CO)CC3 (single isomer, unassigned) [Compound 16-108, hydrochloride] | 8.3 | 2.1 | 1.83 | – | 0.002 | – | – | – | – | – | –
CC[C@@]1(O)C(=O)OCc2c1cc1n(c2=O)Cc2c-1nc1cc(F)c(C)c3c1c2[C@H]([C@@H](CCO)NC(C)C)CC3 (single isomer, unassigned) [Compound 14-95] | 1.7 | 1.42 | 0.483 | 12.7 | 6.6 | – | – | – | – | – | –
CCc1c2c(nc3ccc(O)cc13)-c1cc3c(c(=O)n1C2)COC(=O)[C@]3(O)CC [SN-38, reference compound] | – | – | – | – | – | – | 0.92 | 1.28 | 1.35 | – | –
CC[C@@]1(O)C(=O)OCc2c1cc1n(c2=O)Cc2c-1nc1cc(F)c(C)c3c1c2[C@H]([C@@H](CO)NC(C)C)CC3 (single isomer, unassigned) [Compound 17-115] | 16 | 1.5 | 0.1 | 10.5 | 4.8 | – | – | – | – | – | –
CC[C@@]1(O)C(=O)OCc2c1cc1n(c2=O)Cc2c-1nc1cc(F)c(C)c3c1c2[C@@H]([C@H](CO)NC(C)C)CC3 (single isomer, unassigned) [Compound 17-112] | 17 | > 3.62 | 1.03 | 14.4 | 6.3 | – | – | – | – | – | –
CC[C@@]1(O)C(=O)OCc2c1cc1n(c2=O)Cc2c-1nc1cc(F)c(C)c3c1c2[C@@H]([C@H](CCO)NC(C)C)CC3 (single isomer, unassigned) [Compound 14-92] | 1.7 | > 3.62 | 0.95 | 17.7 | 8.4 | – | – | – | – | – | –
CC[C@@]1(O)C(=O)OCc2c1cc1n(c2=O)Cc2c-1nc1cc(F)c(C)c3c1c2[C@@H]([C@H](CCO)N(C)C)CC3 (single isomer, unassigned) [Compound 15-96] | 0.52 | > 3.62 | 1.6 | 16.7 | 15.6 | – | – | – | – | – | –
CC[C@@]1(O)C(=O)OCc2c1cc1n(c2=O)Cc2c-1nc1cc(F)c(C)c3c1c2[C@@H]([C@@H](CCO)N(C)C)CC3 (single isomer, unassigned) [Compound 15-97] | 0.3 | 1.88 | 0.6 | 36.6 | 15.7 | – | – | – | – | – | –
CC[C@@]1(O)C(=O)OCc2c1cc1n(c2=O)Cc2c-1nc1cc(F)c(C)c3c1c2[C@@H](NC(=O)CO)CC3 [Dxd, reference compound] | – | – | – | – | – | – | 0.95 | >3.62 | 1.67 | – | –
CC[C@@]1(O)C(=O)OCc2c1cc1n(c2=O)Cc2c-1nc1cc(F)c(C)c3c1c2[C@@H]([C@@H](N)CO)CC3 (single isomer, unassigned) [Compound 16-102, hydrochloride] | 27.7 | 1.75 | 2.37 | – | 0.02 | – | – | – | – | – | –
CC[C@@]1(O)C(=O)OCc2c1cc1n(c2=O)Cc2c-1nc1cc(F)c(C)c3c1c2[C@@H]([C@@H](CCO)NC(C)C)CC3 (single isomer, unassigned) [Compound 14-93] | 2.6 | 3.08 | 0.767 | 20.6 | 9.2 | – | – | – | – | – | –
CC[C@@]1(O)C(=O)OCc2c1cc1n(c2=O)Cc2c-1nc1cc(F)c(C)c3c1c2[C@@H]([C@H](N)CO)CC3 (single isomer, unassigned) [Compound 16-105, hydrochloride] | 10.2 | 1.87 | > 2.42 | 0.07 | 0.06 | – | – | – | – | – | –
CC[C@@]1(O)C(=O)OCc2c1cc1n(c2=O)Cc2c-1nc1cc(F)c(C)c3c1c2[C@@H]([C@@H](CO)NC(C)C)CC3 (single isomer, unassigned) [Compound 17-113] | 4.2 | 2.42 | 0.533 | 26.9 | 9.7 | – | – | – | – | – | –
CC[C@@]1(O)C(=O)OCc2c1cc1n(c2=O)Cc2c-1nc1cc(F)c(C)c3c1c2[C@@H](N)CC3 [Exatecan] | 0.4 | – | 1.25 | > 107 | – | – | – | – | – | 2.38 | 16.3
CC[C@@]1(O)C(=O)OCc2c1cc1n(c2=O)Cc2c-1nc1cc(F)c(C)c3c1c2[C@H]([C@H](CCO)N(C)C)CC3 (single isomer, unassigned) [Compound 15-98] | 0.25 | 1.3 | 0.112 | 27 | 11.3 | – | – | – | – | – | –
CC[C@@]1(O)C(=O)OCc2c1cc1n(c2=O)Cc2c-1nc1cc(F)c(C)c3c1c2[C@H]([C@@H](CCO)N(C)C)CC3 (single isomer, unassigned) [Compound 15-99] | 0.32 | 3.47 | 0.967 | 14.9 | 8.5 | – | – | – | – | – | –
CC[C@@]1(O)C(=O)OCc2c1cc1n(c2=O)Cc2c-1nc1cc(F)c(C)c3c1c2[C@H]([C@H](CO)NC(C)C)CC3 (single isomer, unassigned) [Compound 17-114] | 1.9 | 0.8 | 0.035 | 18.3 | 8 | – | – | – | – | – | –
